Source: the Deep4Chem optical property database

Test: solvent given as SMILES

COc1cc(OC)cc(-c2ccc(-c3ccc(C#N)s3)s2)c1
fluorescence lifetime (in C1CCCCC1): 0.22 ns
fluorescence lifetime (in C1COCCO1): 0.23 ns
fluorescence lifetime (in CC#N): 0.24 ns
fluorescence lifetime (in CC(C)O): 0.23 ns
fluorescence lifetime (in CCCCO): 0.24 ns
fluorescence lifetime (in CCO): 0.24 ns
fluorescence lifetime (in CCOC(C)=O): 0.22 ns
fluorescence lifetime (in CN(C)C=O): 0.28 ns
fluorescence lifetime (in CO): 0.25 ns
fluorescence lifetime (in CS(C)=O): 0.35 ns
fluorescence lifetime (in Cc1ccccc1): 0.22 ns
fluorescence lifetime (in ClC(Cl)Cl): 0.22 ns
fluorescence lifetime (in ClCCl): 0.23 ns
fluorescence lifetime (in O): 1.02 ns

CC(C)(C)c1ccc2c(c1)c1cc(C(C)(C)C)ccc1n2-c1ccc(C#Cc2ccc3c4ccc(C#Cc5ccc(-n6c7ccc(C(C)(C)C)cc7c7cc(C(C)(C)C)ccc76)cc5)cc4n(-c4ccc(C(F)(F)F)cc4)c3c2)cc1
fluorescence lifetime (in ClCCl): 0.1 ns

N#Cc1c(-n2c3ccccc3c3ccccc32)c(C#N)c(-n2c3ccccc3c3ccccc32)c(-n2c3ccccc3c3ccccc32)c1-n1c2ccccc2c2ccccc21
fluorescence lifetime (in Cc1ccccc1): 17.8 ns

CCN(CC)c1ccc2c(c1)C(C)(C)C(=O)C=C2
fluorescence lifetime (in O): 2.56 ns

CCCCc1cc(CCCC)c2ccc3c(CCCC)cc(CCCC)c4ccc1c2c43
fluorescence lifetime (in CCCCCC): 65.8 ns
fluorescence lifetime (in CO): 75 ns
fluorescence lifetime (in ClCCl): 56.7 ns

Cc1ccc(-c2ccccc2)cc1
fluorescence lifetime (in C1CCCCC1): 20 ns

COC(=O)C(Cc1ccc2oc(-c3ccc(N(C)C)cc3)nc2c1)NC(=O)OC(C)(C)C (configuration not stated)
fluorescence lifetime (in C1CCCCC1): 1.02 ns
fluorescence lifetime (in C1CCOC1): 1.21 ns
fluorescence lifetime (in C1COCCO1): 1.21 ns
fluorescence lifetime (in CC1CCCO1): 1.15 ns
fluorescence lifetime (in CC1COC(=O)O1): 1.41 ns
fluorescence lifetime (in CC#N): 1.32 ns
fluorescence lifetime (in CC(C)=O): 1.26 ns
fluorescence lifetime (in CC(C)CC(C)(C)C): 1.02 ns
fluorescence lifetime (in CC(C)CO): 1.29 ns
fluorescence lifetime (in CC(C)O): 1.3 ns
fluorescence lifetime (in CC(C)OC(C)C): 1.2 ns
fluorescence lifetime (in CC(O)CO): 1.32 ns
fluorescence lifetime (in CCC(C)CC): 1 ns
fluorescence lifetime (in CCCCC): 1.12 ns
fluorescence lifetime (in CCCCCC): 1.04 ns
fluorescence lifetime (in CCCCCCCCC): 1.08 ns
fluorescence lifetime (in CCCCCCCCCC): 1.09 ns
fluorescence lifetime (in CCCCCCCO): 1.3 ns
fluorescence lifetime (in CCCCCCO): 1.32 ns
fluorescence lifetime (in CCCCCO): 1.25 ns
fluorescence lifetime (in CCCCO): 1.29 ns
fluorescence lifetime (in CCO): 1.35 ns
fluorescence lifetime (in CCOC(C)=O): 1.19 ns
fluorescence lifetime (in CCOCC): 1.24 ns
fluorescence lifetime (in CN(C)C=O): 1.28 ns
fluorescence lifetime (in CO): 1.26 ns
fluorescence lifetime (in COCCOC): 0.88 ns
fluorescence lifetime (in CS(C)=O): 1.26 ns
fluorescence lifetime (in Cc1ccccc1): 1.04 ns
fluorescence lifetime (in Cc1ccccc1C): 1.07 ns
fluorescence lifetime (in ClC(Cl)Cl): 0.79 ns
fluorescence lifetime (in ClCCl): 1.23 ns
fluorescence lifetime (in NC=O): 1.14 ns
fluorescence lifetime (in OC1CCCCC1): 1.28 ns
fluorescence lifetime (in OCCO): 1.13 ns
fluorescence lifetime (in c1ccccc1): 1.08 ns

CCCCCCn1c2ccccc2c2cc3c4cc5c6ccccc6n(CCCCCC)c5cc4c4cc5c(C)cc(=O)oc5cc4c3cc21
fluorescence lifetime (in ClC(Cl)Cl): 3.1 ns

N#Cc1ccc2nc3c(=O)[nH]c(=O)[nH]c3nc2c1
fluorescence lifetime (in ClCCCl): 0.16 ns

Nc1nc2ccc([N+](=O)[O-])cc2s1
fluorescence lifetime (in CC#N): 4.11 ns
fluorescence lifetime (in ClCCl): 3.53 ns

CC1(C)Nc2cc(Cl)ccc2-c2[nH]c3ccccc3c(=O)c21
fluorescence lifetime (in C1CCOC1): 7.47 ns
fluorescence lifetime (in CC#N): 8.72 ns
fluorescence lifetime (in CCCCO): 9.26 ns
fluorescence lifetime (in CCCO): 9.2 ns
fluorescence lifetime (in CCO): 9 ns
fluorescence lifetime (in CCOC(C)=O): 7.52 ns
fluorescence lifetime (in CN(C)C=O): 9.36 ns
fluorescence lifetime (in CO): 8.67 ns
fluorescence lifetime (in CS(C)=O): 9.91 ns
fluorescence lifetime (in Cc1ccccc1): 6.68 ns
fluorescence lifetime (in ClC(Cl)(Cl)Cl): 4.8 ns
fluorescence lifetime (in ClCCl): 8.06 ns
fluorescence lifetime (in O): 8.68 ns
fluorescence lifetime (in c1ccccc1): 6.71 ns

CCN(CC)c1ccc2cc(C#N)/c(=N\C(=O)c3ccco3)oc2c1
fluorescence lifetime (in ClCCl): 3 ns

COc1ccc(/C=C/c2ccccc2)cc1
fluorescence lifetime (in CC#N): 0.04 ns

COc1ccc2c(c1)c1cc(OC)ccc1n2-c1cccc(-n2c3ccc(OC)cc3c3cc(OC)ccc32)c1C#N
fluorescence lifetime (in Cc1ccccc1): 13 ns
fluorescence lifetime (in O=P(c1ccccc1)(c1ccccc1)c1ccccc1Oc1ccccc1P(=O)(c1ccccc1)c1ccccc1): 12.8 ns

O=c1oc2c(ccc3ccccc32)nc1-c1ccccc1
fluorescence lifetime (in c1ccccc1): 6 ns

Cc1ccc(C2=C3C=C(I)C=[N+]3[B-](F)(F)n3cc(I)cc32)cc1
fluorescence lifetime (in C1CCCCC1): 0.117 ns
fluorescence lifetime (in CC#N): 0.057 ns
fluorescence lifetime (in CCO): 0.065 ns
fluorescence lifetime (in CCOC(C)=O): 0.069 ns
fluorescence lifetime (in CO): 0.057 ns
fluorescence lifetime (in OCC(F)(F)F): 0.072 ns

CCCCCCCC[n+]1ccc(-c2cc[n+](CCCCCCCC)cc2)cc1
fluorescence lifetime (in CC#N): 1 ns
